In the assay the target is bNOS (UniProt P29475). Briefly: bNOS inhibition (method of Bredt and Snyder). The class given is biochemical. An excerpt:
The NOS-inhibitory action of the compounds of Formula (I) and their physiologically compatible salts can be determined according to the methods by Bredt and Snyder in Proc. Natl. Acad. Sci. USA (1989) 86, 9030–9033.

SMILES strings stand for the structures. Where a name gives a salt, the structure may show the parent alone.

For orientation: IC50 means the concentration that gives 50% inhibition. Low values mean greater potency in that assay, high ones weaker potency in that assay.

`NC1=Nc2cc(CCNCc3cccc(Cl)c3)c(Cl)cc2C2CCCC12` (stereo not shown) [Example 8, 4-Amino-8-chloro-7-(3-chlorobenzylamino)ethyl-2,3,3a,9b-tetrahydro-1H-cyclopenta[c]quinoline Dihydrochloride] came in with a concentration for half-maximal inhibition (IC50) of 190 nM.

These data come from patent US7067667B2, “Aminoalkyl-3, 4-dihydroquinoline derivatives as no-synthase inhibitors” (Schering Aktiengesellschaft, priority 1998, dated 2006).
